Data on four compounds can be found in US20140296146A1, “Thermostable Inhibitors of Activation of the Blood Clotting System Through Contact with Foreign Surfaces” (Synapse B.V., priority 2011, published 2014).

The target of data set [1] is T1, h-FXIIa (Homo sapiens, UniProt P00748).
T1 construct: purchased Enzyme Research Laboratories FXIIa 1212A
T1 sequence (P00748 373-615 limits assumed): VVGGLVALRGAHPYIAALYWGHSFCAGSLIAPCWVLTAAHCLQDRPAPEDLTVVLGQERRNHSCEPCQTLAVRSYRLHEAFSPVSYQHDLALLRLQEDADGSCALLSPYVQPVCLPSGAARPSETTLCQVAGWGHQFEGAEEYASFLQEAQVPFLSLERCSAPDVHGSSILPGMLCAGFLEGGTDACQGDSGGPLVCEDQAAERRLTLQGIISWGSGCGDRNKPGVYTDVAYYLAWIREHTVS
T1 sequence (P00748 20-372 partner limits assumed): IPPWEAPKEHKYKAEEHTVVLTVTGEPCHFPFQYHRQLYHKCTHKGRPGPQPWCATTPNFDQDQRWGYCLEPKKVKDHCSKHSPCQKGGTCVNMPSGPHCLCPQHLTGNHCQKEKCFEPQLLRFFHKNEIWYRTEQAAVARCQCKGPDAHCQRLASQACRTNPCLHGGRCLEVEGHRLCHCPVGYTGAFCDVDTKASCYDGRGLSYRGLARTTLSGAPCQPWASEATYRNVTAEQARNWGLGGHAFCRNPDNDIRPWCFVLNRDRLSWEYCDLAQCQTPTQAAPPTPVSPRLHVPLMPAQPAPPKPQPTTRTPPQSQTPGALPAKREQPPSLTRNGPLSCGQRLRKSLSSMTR
In words: Effect of inhibitors on hydrolysis of S2302 by h-FXIIa. Format: biochemical. The procedure:
Materials • S2302 From Chromogenic, lot # N0398718 SEQ0860, exp. date 2012-07. Water added on 7 Oct. […] On 3 Aug. […] Product code FXIIa 1212A, lot #FXIIa 2520PL. Bottle with 0.5 mg was reconstituted with 370 μl pure water. […] Buffer 4 mM NaAc, 150 mM NaCl (pH 5.3). Preparation was divided into 20 μl amounts and frozen at −80° C. • Hepes735 140 mM NaCl, 20 mM Hepes, 0.02% NaN3 (pH 7.35). • BSA5 Hepes735+5 mg/ml BSA. • CTI Prepared on 17 Dec. 2004, 0.141 mg/ml, i.e. 0.141/12028=11.7*10^−6 M (11.7 μM). One portion was thawed and divided into 3 parts. Part 1 was frozen at −80° C.; part 2 was kept at RT; and part 3 was incubated 30 min at 95° C. and then kept at RT.
Stock FXIIa was diluted 700× in BSA5. The inhibitor was diluted in BSA5 as indicated. Wells contained 70 μl diluted FXIIa (5 nM final), 70 μl inhibitor and 20 μl S2302 (475 or 462.5 μM final). The reaction was started after 5 min heating on the heating plate with S2302. Filters 405 nm and 490 nm reference. Found mΔA/min was multiplied by 2.14 to get the figure for a 1 cm path.
The residual activity (V) was fitted against the PTI concentration with equation:
(§1) V=(E+(sqrt(Ê2+2*E*(Ki−I)+Î2+2*I*Ki+Kî2)−E−I−Ki)/2)*kcat*S/(Km+S)
(§2) in which E=[FXIIa], Ki is the dissociation constant, I=[Inhibitor], kcat and Km are Michaelis constants and S=[S2302].

Data set [2] concerns the target T1, h-FXIIa. Kind of data set: Stability of CTI, PTI and TICA at RT and at 95° C., read as inhibition of h-FXIIa. Type of data set: physicochemical. The procedure:
Materials • S2302 From Chromogenic, lot # N0398718 SEQ0860, exp. date 2012-07. Water added on 7 Oct. […] On 3 Aug. […] Product code FXIIa 1212A, lot #FXIIa 2520PL. Bottle with 0.5 mg was reconstituted with 370 μl pure water. […] Buffer 4 mM NaAc, 150 mM NaCl (pH 5.3). Preparation was divided into 20 μl amounts and frozen at −80° C. • Hepes735 140 mM NaCl, 20 mM Hepes, 0.02% NaN3 (pH 7.35). • BSA5 Hepes735+5 mg/ml BSA. • CTI Prepared on 17 Dec. 2004, 0.141 mg/ml, i.e. 0.141/12028=11.7*10^−6 M (11.7 μM). One portion was thawed and divided into 3 parts. […]
Stock FXIIa was diluted 700× in BSA5. The inhibitor was diluted in BSA5 as indicated. Wells contained 70 μl diluted FXIIa (5 nM final), 70 μl inhibitor and 20 μl S2302 (475 or 462.5 μM final). The reaction was started after 5 min heating on the heating plate with S2302. Filters 405 nm and 490 nm reference. Found ΔmA/min was multiplied by 2.14 to get the figure for a 1 cm path.
The residual activity (V) was fitted against the inhibitor concentration with equation:
as §1, §2
To calculate the concentration of I the equation I=x·(x−E−Ki)/(x−E) was used. In this equation is I the calculated inhibitor concentration, x=the residual activity of FXIIa (free FXIIa), E the total FXIIa concentration (=9.33 nM), and Ki the dissociation or inhibitor constant.

[3] abbreviates: Ki, Table 2, inhibitory activity of different polypeptides.
The mark [4] stands for this setting: ki F.XIIa (ng/ml), Before heating.

For orientation: Ki means the dissociation constant of the complex between target and ligand, obtained from inhibition or displacement. A higher Ki goes with lower affinity.

Where two headings read alike, the source gives them in different places. Where a SMILES comes first, the peptide text is derived from it. Bridges are numbered along the chain shown (N, C = ends).

On h-FXIIa [1], `CC[C@H](C)[C@@H]1NC(=O)[C@H](CCCNC(=N)N)NC(=O)[C@@H]2CCCN2C(=O)[C@@H](NC(=O)[C@@H](NC(=O)[C@H](CCCNC(=N)N)NC(=O)[C@H](C)NC(=O)[C@H](C)NC(=O)[C@H](C)N)C(C)C)CSSC[C@@H]2NC(=O)[C@H](CCC(=O)O)NC(=O)[C@H](C)NC(=O)[C@H](CC(C)C)NC(=O)[C@@H]3CSSC[C@@H](C(=O)NCC(=O)O)NC(=O)[C@H](Cc4ccc(O)cc4)NC(=O)CNC(=O)[C@H](Cc4c[nH]cn4)NC(=O)[C@H](CCC(=O)O)NC(=O)[C@H](CC(C)C)NC(=O)[C@H](CSSC[C@H](NC(=O)[C@H](CCCCN)NC(=O)[C@H](CCSC)NC(=O)[C@H](CC(C)C)NC1=O)C(=O)N[C@@H](CCCCN)C(=O)N[C@@H](CCCCN)C(=O)N[C@@H](CC(=O)O)C(=O)N[C@@H](CO)C(=O)N[C@@H](CC(=O)O)C(=O)N3)NC(=O)[C@H](C(C)C)NC2=O` [AAA-TICA1] (H-AAARVCPRILMKCKKDSDCLAECVCLEHGYCG-OH; disulfide 6-23, 13-25, 19-31) came in with a Ki of 104 nM. This counts as sub-micromolar.

Take `CC[C@H](C)[C@@H]1NC(=O)[C@H](CCCNC(=N)N)NC(=O)[C@@H]2CCCN2C(=O)[C@@H](NC(=O)[C@@H](NC(=O)[C@@H](N)CCCNC(=N)N)C(C)C)CSSC[C@@H]2NC(=O)[C@H](CCC(=O)O)NC(=O)[C@H](C)NC(=O)[C@H](CC(C)C)NC(=O)[C@@H]3CSSC[C@@H](C(=O)NCC(=O)N[C@@H](C)C(=O)N[C@@H](C)C(=O)N[C@@H](C)C(=O)O)NC(=O)[C@H](Cc4ccc(O)cc4)NC(=O)CNC(=O)[C@H](Cc4c[nH]cn4)NC(=O)[C@H](CCC(=O)O)NC(=O)[C@H](CC(C)C)NC(=O)[C@H](CSSC[C@H](NC(=O)[C@H](CCCCN)NC(=O)[C@H](CCSC)NC(=O)[C@H](CC(C)C)NC1=O)C(=O)N[C@@H](CCCCN)C(=O)N[C@@H](CCCCN)C(=O)N[C@@H](CC(=O)O)C(=O)N[C@@H](CO)C(=O)N[C@@H](CC(=O)O)C(=O)N3)NC(=O)[C@H](C(C)C)NC2=O` [TICA1-AAA] (H-RVCPRILMKCKKDSDCLAECVCLEHGYCGAAA-OH; disulfide 3-20, 10-22, 16-28): at h-FXIIa [1], the affinity, expressed as Ki, was 377 nM.

Regarding `CC[C@H](C)[C@@H]1NC(=O)[C@H](CCCNC(=N)N)NC(=O)[C@@H]2CCCN2C(=O)[C@@H](NC(=O)[C@@H](NC(=O)[C@H](CCCNC(=N)N)NC(=O)[C@H](CCC(=O)O)NC(=O)[C@H](CCC(=O)O)NC(=O)[C@@H](N)Cc2c[nH]cn2)C(C)C)CSSC[C@@H]2NC(=O)[C@H](CCC(=O)O)NC(=O)[C@H](C)NC(=O)[C@H](CC(C)C)NC(=O)[C@@H]3CSSC[C@@H](C(=O)NCC(=O)O)NC(=O)[C@H](Cc4ccc(O)cc4)NC(=O)CNC(=O)[C@H](Cc4c[nH]cn4)NC(=O)[C@H](CCC(=O)O)NC(=O)[C@H](CC(C)C)NC(=O)[C@H](CSSC[C@H](NC(=O)[C@H](CCCCN)NC(=O)[C@H](CCSC)NC(=O)[C@H](CC(C)C)NC1=O)C(=O)N[C@@H](CCCCN)C(=O)N[C@@H](CCCCN)C(=O)N[C@@H](CC(=O)O)C(=O)N[C@@H](CO)C(=O)N[C@@H](CC(=O)O)C(=O)N3)NC(=O)[C@H](C(C)C)NC2=O` [TICA3] (H-HEERVCPRILMKCKKDSDCLAECVCLEHGYCG-OH; disulfide 6-23, 13-25, 19-31 (inferred); N-terminus and C-terminus assumed), the figures for the “Res. Act. (%)” value on h-FXIIa [2] (inhibitor 30 min 95° C.), at h-FXIIa [2] (inhibitor at RT during 72 hrs) and at h-FXIIa [2] (inhibitor kept at −80° C.) were 103%, 101% and 100%, respectively. Further, the Ki on h-FXIIa [1] (setting [3]) was 3090 nM; at h-FXIIa [1] (setting [4]), 2760 nM.

In the case of `CC[C@H](C)[C@@H]1NC(=O)[C@@H]2CSSC[C@H](NC(=O)[C@@H](NC(=O)[C@H](CCCNC(=N)N)NC(=O)[C@H](CCC(=O)O)NC(=O)[C@H](CCC(=O)O)NC(=O)[C@@H](N)Cc3c[nH]cn3)C(C)C)C(=O)N3CCC[C@H]3C(=O)N[C@@H](CCCCN)C(=O)N[C@@H]([C@@H](C)CC)C(=O)N[C@@H](CC(C)C)C(=O)N[C@@H](CCSC)C(=O)N[C@@H](CCC(=O)O)C(=O)N[C@H]3CSSC[C@H](NC1=O)C(=O)N[C@@H](CC(C)C)C(=O)N[C@@H](CCC(=O)O)C(=O)N[C@@H](Cc1c[nH]cn1)C(=O)NCC(=O)N[C@@H](Cc1ccc(O)cc1)C(=O)N[C@H](C(=O)NCC(=O)O)CSSC[C@H](NC(=O)[C@H](CC(=O)O)NC(=O)[C@H](CO)NC(=O)[C@H](CC(=O)O)NC(=O)[C@H](CCCCN)NC(=O)[C@H](CCCCN)NC3=O)C(=O)N[C@@H](CC(C)C)C(=O)N[C@@H](C)C(=O)N[C@@H](CCC(=O)O)C(=O)N2` [TICA5] (H-HEERVCPKILMECKKDSDCLAECICLEHGYCG-OH; disulfide 6-23, 13-25, 19-31 (inferred); N-terminus and C-terminus assumed), the “Res. Act. (%)” value at h-FXIIa [2] (inhibitor 30 min 95° C.) was 105%; at h-FXIIa [2] (inhibitor at RT during 72 hrs), 96%; at h-FXIIa [2] (inhibitor kept at −80° C.), 100%. Further, the Ki is 171000 nM at h-FXIIa [1] (setting [3]) and 152000 nM on h-FXIIa [1] (setting [4]).
